Paper PMC12167809 (The Journal of Biological Chemistry, 2025)

Test system: β-TrCP1:β-catenin interaction
Format: binding, human
Conditions: saturating concentrations of glue, TR-FRET

## COc1cc2c(cc1OC)CN(C(=O)c1c(Sc3c(Cl)cccc3Cl)cc(C(F)(F)F)[nH]c1=O)C2 [NRX-252262, 4-((2,6-dichlorophenyl)thio)-3-(5,6-dimethoxyisoindoline-2-carbonyl)-6-(trifluoromethyl)pyridin-2(1H)-one]
  Effect on the β-TrCP1:β-catenin interaction: dramatically enhances the interaction between β-TrCP1 and β-catenin
